From ChEMBL document CHEMBL4229463, “Regio- and stereospecific synthesis of rac-carbasugar-based cyclohexane pentols; Investigations of their α- and β-glucosidase inhibitions” (Bioorg Med Chem, 2018)

Key:
Saccharomyces cerevisiae [1] = test: Inhibition of Saccharomyces cerevisiae alpha-glucosidase at 10 uM using PNPG as substrate after 3 mins by UV-vis spectrophotometric method relative to control
Saccharomyces cerevisiae [2] = test: Inhibition of Saccharomyces cerevisiae alpha-glucosidase at 20 uM using PNPG as substrate after 3 mins by UV-vis spectrophotometric method relative to control
Saccharomyces cerevisiae [3] = test: Inhibition of Saccharomyces cerevisiae alpha-glucosidase at 40 uM using PNPG as substrate after 3 mins by UV-vis spectrophotometric method relative to control
Saccharomyces cerevisiae [4] = test: Inhibition of Saccharomyces cerevisiae alpha-glucosidase at 60 uM using PNPG as substrate after 3 mins by UV-vis spectrophotometric method relative to control
Saccharomyces cerevisiae [5] = test: Inhibition of Saccharomyces cerevisiae alpha-glucosidase at 80 uM using PNPG as substrate after 3 mins by UV-vis spectrophotometric method relative to control
Saccharomyces cerevisiae [6] = test: Inhibition of Saccharomyces cerevisiae alpha-glucosidase at 120 uM using PNPG as substrate after 3 mins by UV-vis spectrophotometric method relative to control
[7] = Inhibition of Saccharomyces cerevisiae alpha-glucosidase using PNPG as substrate after 3 mins by UV-vis spectrophotometric method
Prunus dulcis [8] = test: Inhibition of almond beta-glucosidase at 10 uM using PNPG as substrate after 3 mins by UV-vis spectrophotometric method relative to control
Prunus dulcis [9] = test: Inhibition of almond beta-glucosidase at 20 uM using PNPG as substrate after 3 mins by UV-vis spectrophotometric method relative to control
Prunus dulcis [10] = test: Inhibition of almond beta-glucosidase at 40 uM using PNPG as substrate after 3 mins by UV-vis spectrophotometric method relative to control
Prunus dulcis [11] = test: Inhibition of almond beta-glucosidase at 60 uM using PNPG as substrate after 3 mins by UV-vis spectrophotometric method relative to control
Prunus dulcis [12] = test: Inhibition of almond beta-glucosidase at 80 uM using PNPG as substrate after 3 mins by UV-vis spectrophotometric method relative to control
Prunus dulcis [13] = test: Inhibition of almond beta-glucosidase at 120 uM using PNPG as substrate after 3 mins by UV-vis spectrophotometric method relative to control
[14] = Inhibition of almond beta-glucosidase using PNPG as substrate after 3 mins by UV-vis spectrophotometric method; parameters: species or system Prunus dulcis

With `OC[C@H]1C[C@H](Cl)[C@@H](O)[C@H](O)[C@H]1CO` (racemic) the inhibition (Saccharomyces cerevisiae [1]) was 12.2%, the inhibition (Saccharomyces cerevisiae [2]) was 13.3% and the inhibition (Saccharomyces cerevisiae [3]) was 15%. The inhibition (Saccharomyces cerevisiae [4]) was 26.1%, the inhibition (Saccharomyces cerevisiae [5]) was 38% and the inhibition (Saccharomyces cerevisiae [6]) was 55%. It also gave an IC50 [7] of 176 µM, an inhibition (Prunus dulcis [8]) of 1.99% and an inhibition (Prunus dulcis [9]) of 5.2%. For the same compound, the inhibition (Prunus dulcis [10]) was 19.1%, the inhibition (Prunus dulcis [11]) was 20.6% and the inhibition (Prunus dulcis [12]) was 24.1%. It also gave an inhibition (Prunus dulcis [13]) of 32.3%.

Compound `OC[C@H]1C[C@H](O)[C@@H](Cl)[C@H](O)[C@H]1CO` (racemic) has an inhibition (Saccharomyces cerevisiae [1]) of 3.98%, an inhibition (Saccharomyces cerevisiae [2]) of 7.9% and an inhibition (Saccharomyces cerevisiae [3]) of 20.4%. For the same compound, the inhibition (Saccharomyces cerevisiae [4]) was 23%, the inhibition (Saccharomyces cerevisiae [5]) was 34.8% and the inhibition (Saccharomyces cerevisiae [6]) was 56.4%. For the same compound, the IC50 [7] was 155 µM, the inhibition (Prunus dulcis [8]) was 2.49% and the inhibition (Prunus dulcis [9]) was 11.7%. For the same compound, the inhibition (Prunus dulcis [10]) was 18.4%, the inhibition (Prunus dulcis [11]) was 21.1% and the inhibition (Prunus dulcis [12]) was 24.6%. The inhibition (Prunus dulcis [13]) was 26.4%.

`OC[C@H]1C[C@@H](O)[C@H](O)[C@@H](O)[C@H]1CO` (racemic) gave an inhibition (Saccharomyces cerevisiae [1]) of 10.4%, an inhibition (Saccharomyces cerevisiae [2]) of 12.1% and an inhibition (Saccharomyces cerevisiae [3]) of 22.5%. For the same compound, the inhibition (Saccharomyces cerevisiae [4]) was 25.3%, the inhibition (Saccharomyces cerevisiae [5]) was 33.6% and the inhibition (Saccharomyces cerevisiae [6]) was 44.6%. For the same compound, the inhibition (Prunus dulcis [8]) was 3.74%, the inhibition (Prunus dulcis [9]) was 5.22% and the inhibition (Prunus dulcis [10]) was 25.1%. The inhibition (Prunus dulcis [11]) was 30.8%, the inhibition (Prunus dulcis [12]) was 33.8% and the inhibition (Prunus dulcis [13]) was 36.8%.

With `OC[C@H]1C[C@H](O)[C@@H](O)[C@H](O)[C@H]1CO` (racemic) the inhibition (Saccharomyces cerevisiae [1]) was 2.13%, the inhibition (Saccharomyces cerevisiae [2]) was 3.6% and the inhibition (Saccharomyces cerevisiae [3]) was 7.83%. For the same compound, the inhibition (Saccharomyces cerevisiae [4]) was 8.5%, the inhibition (Saccharomyces cerevisiae [5]) was 10.8% and the inhibition (Saccharomyces cerevisiae [6]) was 16%. It also gave an inhibition (Prunus dulcis [8]) of 2.24%, an inhibition (Prunus dulcis [9]) of 5.97% and an inhibition (Prunus dulcis [10]) of 10.9%. For the same compound, the inhibition (Prunus dulcis [11]) was 15.4%, the inhibition (Prunus dulcis [12]) was 17.7% and the inhibition (Prunus dulcis [13]) was 17.4%.

Work on `OC[C@H]1C[C@H](O)[C@H](O)[C@@H](O)[C@H]1CO` (racemic) yielded an inhibition (Saccharomyces cerevisiae [1]) of 3.42%, an inhibition (Saccharomyces cerevisiae [2]) of 5.59% and an inhibition (Saccharomyces cerevisiae [3]) of 7.93%. The inhibition (Saccharomyces cerevisiae [4]) was 8.21%, the inhibition (Saccharomyces cerevisiae [5]) was 9.5% and the inhibition (Saccharomyces cerevisiae [6]) was 16.3%. The inhibition (Prunus dulcis [10]) was 2%, the inhibition (Prunus dulcis [11]) was 4.29% and the inhibition (Prunus dulcis [12]) was 12.9%. It also gave an inhibition (Prunus dulcis [13]) of 23%.

Work on `C[C@H]1O[C@H](O[C@H]2[C@H](O)[C@@H](O)[C@@H](O[C@H]3[C@H](O)[C@@H](O)C(O)O[C@@H]3CO)O[C@@H]2CO)[C@H](O)[C@@H](O)[C@@H]1N[C@H]1C=C(CO)[C@@H](O)[C@H](O)[C@H]1O` (some centres undefined) [ACARBOSE] yielded an inhibition (Saccharomyces cerevisiae [1]) of 22.8%, an inhibition (Saccharomyces cerevisiae [2]) of 30% and an inhibition (Saccharomyces cerevisiae [3]) of 33%. It also gave an inhibition (Saccharomyces cerevisiae [4]) of 46%, an inhibition (Saccharomyces cerevisiae [5]) of 60% and an inhibition (Saccharomyces cerevisiae [6]) of 78%. It also gave an IC50 [7] of 52.2 µM, an inhibition (Prunus dulcis [8]) of 17% and an inhibition (Prunus dulcis [9]) of 25%. The inhibition (Prunus dulcis [10]) was 40%, the inhibition (Prunus dulcis [11]) was 52% and the inhibition (Prunus dulcis [12]) was 58%. It also gave an inhibition (Prunus dulcis [13]) of 68% and an IC50 [14] of 55.9 µM.
